Experimental data taken from US9566344B2, “Dasatinib and nonlinear configuration polyethylene glycol conjugate” (priority 2013, dated 2017).
Several values for one entry are separate records, joined by “and”; a condition that tells them apart may be missing. Equal entries are not always repeated.

How the values were obtained:
[1] = test system: K562 human chronic myeloid leukemia subcutaneous xenograft; assay: Antitumor effect in subcutaneous tumor model of K562 human chronic myeloid leukemia; assay type: in vivo, NOD/SCID mice
Method: (§1) K562 cells were inoculated subcutaneously on the right back of NOD/SCID mice to establish human chronic myeloid leukemia subcutaneous xenograft animal model. When the mean tumor volume reached 130 mm^3, the mice used in the experiment were divided into groups and there were 8 mice in each group, then the mice were injected intravenously twice a week. The therapeutic efficiency was evaluated based on the relative tumor proliferation rate (T/C %).
(§2) K562 cell line was cultured in vitro in RPMI-1640 medium supplemented with fetal bovine serum with a volume ratio of 10% and L-glutamine (2 mM) at 37 with the air containing CO2 with a proportion of 5%. The tumor cells were routinely passaged twice a week. The tumor cells in the exponential growth phase were collected and suspended in the mixture formed by PBS and matirgel with an equal volume, and then placed on ice for inoculation of tumor cells.
(§3) 5×10^6 of K562 cells were inoculated subcutaneously on the right back of the mice used in the experiment, the tumor growth was observed regularly, and stochastic grouping of the mice according to tumor size and body weight in mice and pharmacotherapy were carried out when the mean volume of the tumor reached 130 mm^3.
In this study all the operations related to operating, nursing and treatment were undertaken according to the handbook approved by Association for Assessment and Accreditation of Laboratory Animal Care (AAALAC). […] In everyday observation, the influence of tumor growth on animal normal behaviors (such as exercise, eating, drinking, change of weight, eyes, hair) and any other abnormalities were noticed. Death and clinical symptoms of animals in each group were recorded.
Throughout the experiment, the weight and tumor size of mice were measured twice a week. The computational formula of tumor size was as follows: tumor volume (mm^3)=0.5×(long diameter of tumor x short diameter of tumor^2). According to the tumor size in experimental groups and control group, RTV and T/C ratio were calculated. RTV is the relative tumor volume. T/C ratio is the percentage ratio of relative tumor volumes in the treatment group and the control group at a time point after finish of treatment, and reflects the antitumor pharmacodynamic actions of the different treatment groups.

[2] = test system: PC-3 human prostate cancer subcutaneous xenograft; assay: Pharmacodynamics in subcutaneous tumor model of PC-3 human prostate cancer; assay type: in vivo, Balb/c nude mice; details: PC-3 xenograft; for T/C (%) relative tumor proliferation rate / Relative tumor volume (x ± SE) / Tumor volume (x ± SE) / Effect on tumor growth compared with the solvent control group (in words): 10 mg/kg; for Effect on tumor growth compared with the solvent control group (in words): p values less than 0.01; for Anti-tumor effect compared with dasatinib (in words): same dose 10 mg/kg, 25th day
Method: as §1, with “PC-3” for “K562”, “Balb/c nude” for “NOD/SCID”, “prostate cancer” for “chronic myeloid leukemia”, “160” for “130”, “group,” for “group, then”
as §2, with “PC-3” for “K562”, “Ham's F12K” for “RPMI-1640”, “5%, the” for “5%. The”
as §3, with “PC-3” for “K562”, “weas” for “was”, “160” for “130”
In this study all the operations related to operating, nursing and treatment were undertaken according to the handbook approved by Association for Assessment and Accreditation of Laboratory Animal Care (AAALAC). […] In everyday observation, the influence of tumor growth on normal animal behaviors (such as exercise, eating, drinking, change of weight, eyes, hair) and any other abnormalities were noticed. Death and clinical symptoms of animals in each group were recorded.
Throughout the experiment, the weight and tumor size of mice were measured twice a week. The computational formula of tumor size was as follows: tumor volume (mm^3)=0.5×(long diameter of tumor×short diameter of tumor^2). According to the tumor size in experimental groups and control group, RTV and T/C ratio were calculated. RTV is the relative tumor volume. T/C ratio is the percentage ratio of relative tumor volumes in the treatment groups and the control group at a time point after finish of treatment, and reflects the antitumor pharmacodynamic actions of the different treatment groups. When the experiment was finished, the tumors were recorded by photographs in the following two ways: 1. the animals in each group were euthanized by CO2, and the tumor-bearing sides were placed upwards and taken photographs for recording by group; 2. the tumors were removed and weighed first, and T/C values (percentage ratio of tumor weights in treatment groups and the control group) were calculated, and then tumors in each group were placed in order at the same time and taken photographs for recording.

[3] = 5 mg/kg, 14th day after grouping, compared with the solvent control group
[4] = 5 mg/kg, i.v. twice a week, 14th day after grouping
[5] = 5 mg/kg, i.v. twice a week, 21st day after grouping
[6] = 5 mg/kg, i.v. twice a week, 21st day after grouping, 5 mg/kg
[7] = 5 mg/kg, injected intravenously twice a week, 14th day after grouping, 5 mg/kg
[8] = 5 mg/kg, p values less than 0.001
[9] = 22nd day after grouping, compared with the solvent control group
[10] = i.v. twice a week, 22nd day after grouping
[11] = i.v. twice a week, 25th day after grouping
[12] = injected intravenously twice a week, 22nd day after grouping
[13] = 5 mg/kg, 21st day after grouping, compared with the group using dasatinib, 5 mg/kg
[14] = 25th day after grouping, compared with the group using dasatinib
[15] = 5 mg/kg, 21st day after grouping, compared with the group using dasatinib

Molecule	T/C (%) relative tumor proliferation rate [1, 3] [%]	Relative tumor volume (x ± SE) [1, 4]	Relative tumor volume (x ± SE) [1, 5]	Tumor volume (x ± SE) [1, 6]	Tumor volume (x ± SE) [1, 7]	Effect on tumor growth compared with the solvent control group (in words) [1, 8]	T/C (%) relative tumor proliferation rate [2, 9] [%]	Relative tumor volume (x ± SE) [2, 10]	Relative tumor volume (x ± SE) [2, 11]	Tumor volume (x ± SE) [2, 11]	Tumor volume (x ± SE) [2, 12]	Effect on tumor growth compared with the solvent control group (in words) [2]	T/C (%) relative tumor proliferation rate [1, 13] [%]	Anti-tumor effect compared with dasatinib (in words) ([1]; same dose 5 mg/kg, 21st day)	T/C (%) relative tumor proliferation rate [2, 14] [%]	Anti-tumor effect compared with dasatinib (in words) [2]	T/C (%) relative tumor proliferation rate [1, 15] [%]
Cc1nc(Nc2ncc(C(=O)Nc3c(C)cccc3Cl)s2)cc(N2CCN(CCO)CC2)n1 [dasatinib]	12.4	226.9 ± 30.0	289.1 ± 46.9	391 mm^3 and 391 ± 79 mm^3	311 mm^3 and 311 ± 55 mm^3	statistically significant effect of anti-K562 tumor growth	73	1148.9 ± 112.7	1235.3 ± 119.6	1868 mm^3 and 1868 ± 76 mm^3	1752 mm^3 and 1752 ± 76 mm^3	statistically significant effect of anti-PC-3 tumor growth					
^20k4arm -PEG-OCH2CH2OCOODS [DSN-3]	11.8	215.4 ± 41.1	208 ± 37.6	281 mm^3 and 281 ± 56 mm^3	295 mm^3 and 295 ± 68 mm^3	statistically significant effect of anti-K562 tumor growth	59	927.5 ± 96.3	864.7 ± 74.5	1307 mm^3 and 1307 ± 155 mm^3	1452 mm^3 and 1452 ± 139 mm^3	statistically significant effect of anti-PC-3 tumor growth	42	more significant	70	more significant	
^20k4arm -PEG-OCH2CH2ODS [DSN-1]	14	254.6 ± 42.2	277.5 ± 32.2	375 mm^3 and 375 ± 89 mm^3	349 mm^3 and 349 ± 76 mm^3	statistically significant effect of anti-K562 tumor growth	67	1053.2 ± 107.4	975.6 ± 103.5	1476 mm^3 and 1476 ± 118 mm^3	1649 mm^3 and 1649 ± 142 mm^3	statistically significant effect of anti-PC-3 tumor growth		no statistically significant differences	79	more significant	96
^20k4arm -PEG-OCH2COODS [DSN-2]	16	282.1 ± 46.3	350.3 ± 71.9	462 mm^3 and 462 ± 114 mm^3	372 mm^3 and 372 ± 80 mm^3	statistically significant effect of anti-K562 tumor growth	71	1116.1 ± 98.2	1087.1 ± 88.2	1644 mm^3 and 1644 ± 146 mm^3	1748 mm^3 and 1748 ± 146 mm^3	statistically significant effect of anti-PC-3 tumor growth		no statistically significant differences	88	no statistically significant difference	121
^20k4arm-PEG-OCH2CH2NHCOODS [DSN-4]	8.5	155.5 ± 28.5	161.8 ± 18.9	219 mm^3 and 219 ± 45 mm^3	210 mm^3 and 210 ± 47 mm^3	statistically significant effect of anti-K562 tumor growth	48	754.6 ± 84.5	778.1 ± 82.4	1177 mm^3 and 1177 ± 120 mm^3	1182 mm^3 and 1182 ± 68 mm^3	statistically significant effect of anti-PC-3 tumor growth	36	more significant	63	more significant	
